Laboratory results published in patent US20170271704A1, “MITIGATION OF CROSSOVER WITHIN FLOW BATTERIES” (LOCKHEED MARTIN ADVANCED ENERGY STORAGE,LLC, priority 2016, published 2017).

Columns and labels:
[1] = Aqueous solubility (Table 1 comparison of positive half-cell active materials); conditions: effective concentration of transferrable electrons (solubility x electrons transferred)
[2] = in water; active material for positive half-cell of a flow battery; cited from earlier work

## Fe(CN)6^3−^/4−
[1]
  Electron Aqueous Solubility: 1300 to 1600 mM
[2]
  Aqueous Solubility: 1300 to 1600 mM
